How the values were obtained:
[1] = test system: HCC4006-ER cells; test: Cell viability assay (CellTiter-Glo) in erlotinib-resistant HCC4006-ER cells; assay type: cell-based; details: for Ability to overcome resistance to erlotinib (cell viability, FIG. 3 and FIG. 5): 72 h, in combination with erlotinib
Experimental: 10^3 cells were plated in each well of 384-well plate. 24 hours after plating, added indicated concentration drug to each well. 72 hours after dosing, added CellTiter-Glo Reagent (CellTiter Glo Luminescent Cell Viability Assay, Promega) to each well, incubate the plate at room temperature for 10 minutes, record luminescence by EnVision 2101 Multilabel Reader (PerkinElmer).
Drug-sensitive cells (HCC4006 and HCC827) were treated with 2 uM erlotinib for 2 months. Fresh media containing 2 uM erlotinib were replaced every 3 to 4 days. Viable cells were collected as erlotinib-resistant cells.

[2] = test system: HCC4006 cells; test: Clonogenic assay (crystal violet) in HCC4006 cells; assay type: cell-based; details: erlotinib 1 μM plus PD173074 0.5 μM, continuous treatment, stained at 6 weeks
Experimental: 10^5 cells were plated in 10 cm^2 plate. 24 hours after plating, media was removed and replaced with media containing indicated drugs. Fresh media was replaced every 3 to 4 days until cells reached confluence (4 weeks) or 6 weeks to stop culture. Media was removed, cells were washed with PBS, then stained with 0.5% crystal violet for 20 minutes at room temperature. Dye was removed, cell monolayers were washed with water, dry the plate and take a picture as record.

| SMILES | Sensitivity of cells to erlotinib (cell viability, annexin V, FIG. 1A-C) ([1]; HCC4006-ER vs parental HCC4006, 72 h) | Development of resistance to erlotinib (FIG. 6) [2] | Ability to overcome resistance to erlotinib (cell viability, FIG. 3 and FIG. 5) ([1]; HCC4006-ER cells) | Screen of small molecule inhibitors in the presence or absence of erlotinib (growth inhibition, FIG. 8) ([1]; HCC4006-ER cells, with or without erlotinib) |
| --- | --- | --- | --- | --- |
| C#Cc1cccc(Nc2ncnc3cc(OCCOC)c(OCCOC)cc23)c1 [erlotinib, N-(3-ethynylphenyl)-6,7-bis(2-methoxyethoxy)-4-quinazolinamine] | resistant |  |  |  |
| CCN(CC)CCCCNc1ncc2cc(-c3cc(OC)cc(OC)c3)c(NC(=O)NC(C)(C)C)nc2n1 [PD173074, N-[2-[[4-(diethylamino)butyl]amino]-6-(3,5-dimethoxyphenyl)pyrido[2,3-d]pyrimidin-7-yl]-N′-(1,1-dimethylethyl)-urea] |  | can suppress the development of resistance to erlotinib | overcame resistance to erlotinib | could reverse resistance to erlotinib |
| Nc1nc(Nc2ccc3c(c2)CCC(N2CCCC2)CC3)nn1-c1cc2c(nn1)-c1ccccc1CCC2 (centres unmarked) [R428] |  |  | cannot overcome resistance to erlotinib |  |
